Source: ChEMBL document CHEMBL1136231, “Synthesis of a novel family of diterpenes and their evaluation as anti-inflammatory agents” (Bioorg Med Chem Lett, 2003)
Converted amounts (≈) assume the structure as drawn. The source made the active and inactive calls. The rule behind the calls is not given here.

What was measured:
Format in all cases: functional
[1] = (§1) Cytotoxicity in HPBMC (Human Peripheral Blood Mononuclear Cells); parameters: concentration or dose not given beside the values
[2] = Inhibition of TNF-alpha was tested in HPBMC (Human Peripheral Blood Mononuclear Cells)
[3] = Inhibition efficacy of TNF-alpha was tested in HPBMC (Human Peripheral Blood Mononuclear Cells); parameters: concentration or dose not given beside the values
[4] = as §1
[5] = Inhibition of TNF-alpha was tested in HPBMC (Human Peripheral Blood Mononuclear Cells); Inactive
Homo sapiens [6] = organism: Homo sapiens; test: Inhibition efficacy of TNF-alpha was tested in HPBMC (Human Peripheral Blood Mononuclear Cells); Not active
Homo sapiens [7] = organism: Homo sapiens; test: (§2) Cytotoxicity in HPBMC (Human Peripheral Blood Mononuclear Cells); Not active
[8] = Inhibition of TNF-alpha was tested in HPBMC (Human Peripheral Blood Mononuclear Cells); In active
[9] = as §2
[10] = Inhibition of TNF-alpha was tested in HPBMC (Human Peripheral Blood Mononuclear Cells); inactive

Row | Structure (SMILES) | Efficacy [1] [%] | IC50 [2] [µg/mL] | Efficacy [3] [%] | EC50 [4] [µg/mL] | IC50 [5] | Efficacy (Homo sapiens [6]) | Efficacy (Homo sapiens [7]) | IC50 [8] | EC50 [9] | IC50 [10]
1 | C=C[C@]1(C)CCC=C2[C@H]1CC[C@@H]1[C@](C)(C(=O)O)CCC[C@@]21C | 35 | 3.7 (≈ 12.2 µM) | 86 |  |  |  |  |  |  | 
2 | C=C[C@@]1(C)CCCC2=C1CC[C@@H]1[C@](C)(C(=O)O)CCC[C@@]21C | 99 | 2.8 (≈ 9.26 µM) | 98 | 2.2 (≈ 7.27 µM) |  |  |  |  |  | 
3 | C=C[C@@]1(C)CCCC2=C1CC[C@@H]1[C@](C)(CO)CCC[C@@]21C | 99 | 3.1 (≈ 10.7 µM) | 99 | 3.4 (≈ 11.8 µM) |  |  |  |  |  | 
4 | C[C@]1(C(=O)O)CCC[C@]2(C)c3cc(O)ccc3CC[C@@H]12 [PODOCARIC ACID] |  |  |  |  | Not Active | inactive | inactive |  |  | 
5 | COC(=O)[C@]1(C)CCC[C@@]2(C)C3=CCC[C@](C)(CO)[C@@H]3CC[C@H]12 |  |  |  |  |  | inactive | inactive | Not Active | Not Active | 
6 | C=C[C@]1(C)CCC=C2[C@H]1CC[C@@H]1[C@](C)(C(=O)OC)CCC[C@@]21C | 71 | 1.4 (≈ 4.42 µM) | 99 | 3.1 (≈ 9.8 µM) |  |  |  |  |  | 
7 | C=C[C@]1(C)CCC=C2[C@H]1CC[C@@H]1[C@](C)(CO)CCC[C@@]21C | 93 | 2.2 (≈ 7.63 µM) | 99 | 2.3 (≈ 7.97 µM) |  |  |  |  |  | 
8 | C=C[C@@]1(C)CCC=C2[C@H]1CC[C@@H]1[C@](C)(C(=O)O)CCC[C@@]21C | 66 | 5.7 (≈ 18.8 µM) | 90 | 7.8 (≈ 25.8 µM) |  |  |  |  |  | 
9 | C=C[C@@]1(C)CC(=O)[C@]2(O)[C@@]3(C)[C@@H](O)CCC(C)(C)[C@@H]3[C@H](O)[C@H](OC(C)=O)[C@@]2(C)O1 [COLFORSIN] |  |  |  |  |  | inactive | inactive |  |  | Not Active
10 | C=C[C@@]1(C)CCCC2=C1CC[C@@H]1[C@](C)(C(=O)OC)CCC[C@@]21C |  | 0.6 (≈ 1.9 µM) | 47 |  |  |  | inactive |  |  | 
11 | C=C[C@@]1(C)CCC=C2[C@H]1CC[C@@H]1[C@](C)(C(=O)OC)CCC[C@@]21C | 98 | 0.7 (≈ 2.21 µM) | 99 | 1.8 (≈ 5.69 µM) |  |  |  |  |  | 
12 | C=C[C@@]1(C)CCC=C2[C@H]1CC[C@@H]1[C@](C)(CO)CCC[C@@]21C |  | 2.3 (≈ 7.97 µM) | 38 |  |  |  | inactive |  |  | 
